# Assay results as given in ChEMBL document CHEMBL1201862, “PubChem BioAssay data set” (2004).
# Activity calls are given as the source filed them.
# Experiments:
# [1] = target: Ras and Rab interactor 1/Tyrosine-protein kinase ABL1 (Homo sapiens, UniProt P00519+Q13671); assay type: functional;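 also: biochemical TR-FRET dose-response test measuring inhibition of binding between Rin1 and Abl proteins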
# [2] = target: Apoptotic protease-activating factor 1 (Homo sapiens, UniProt O14727); assay type: functional
# [3] = Shn3 3'UTR reporter inhibitors, dose response, cell-based, Clone20 osteoblasts, firefly luciferase, cherry-picked (AID 624132); assay type: functional;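 also: firefly luciferase luminescence from reporter carrying the Shn3 3'UTR in osteoblasts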
# Protein Wnt-3a = Protein Wnt-3a (Mus musculus, UniProt P27467); assay: Wnt3a-driven reporter signaling inhibition, dose response, selectivity assay for Gli-SUFU antagonist project, Wnt-LIGHT cells, luminescence (AID 651570); assay type: functional; conditions: read-out: IC50_Mean;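 also: Wnt-LIGHT reporter cells stimulated with conditioned medium from Wnt3a-producing cells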
# Melanocortin receptor 4 = Melanocortin receptor 4 (Homo sapiens, UniProt P32245); assay: MC4R antagonist potency on cAMP, dose response, cell-based, TR-FRET, biased antagonists (AID 602298); assay type: functional;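 also: antagonist potency against agonist-stimulated cAMP production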
# [4] = control 3'UTR Renilla luciferase suppression, dose response, counter-screen for Shn3 inhibitor project, cell-based, Clone20-Shn3RL, cherry-picked (AID 624133); assay type: functional
# [5] = nonselective inhibitors of cellular cAMP signaling, dose response, counter-screen for MC4R biased antagonist project, cell-based, TR-FRET cAMP detection (AID 602305); assay type: functional;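 also: U2OS cells stimulated with forskolin near its EC80 as the cAMP inducer; potency is for inhibition of forskolin-stimulated cAMP signaling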
# [6] = HepG2 cell cytotoxicity, dose response, cytotoxicity control for Shn3 inhibitor project, CellTiter-Glo, cherry-picked (AID 624134); assay type: functional, cell-based
# [7] = target: Long-chain-fatty-acid--AMP ligase FadD28 (Mycobacterium tuberculosis, UniProt P9WQ59); assay: Fluorescence polarization aasay to screen for inhibitors that compete for the binding of FadD28 to a bisubstrate Measured in Biochemical System Using Plate Reader - 2147-01_Inhibitor_Dose_CherryPick_Activity.; assay type: functional, Mycobacterium tuberculosis H37Rv
# [8] = target: T1, Mannose-6-phosphate isomerase (Homo sapiens, UniProt P34949); assay: human PMI inhibitors, high substrate, primary screen, biochemical, fluorescence intensity, high mannose 6-phosphate (AID 1220)
# T1 sequence (P34949 whole entry): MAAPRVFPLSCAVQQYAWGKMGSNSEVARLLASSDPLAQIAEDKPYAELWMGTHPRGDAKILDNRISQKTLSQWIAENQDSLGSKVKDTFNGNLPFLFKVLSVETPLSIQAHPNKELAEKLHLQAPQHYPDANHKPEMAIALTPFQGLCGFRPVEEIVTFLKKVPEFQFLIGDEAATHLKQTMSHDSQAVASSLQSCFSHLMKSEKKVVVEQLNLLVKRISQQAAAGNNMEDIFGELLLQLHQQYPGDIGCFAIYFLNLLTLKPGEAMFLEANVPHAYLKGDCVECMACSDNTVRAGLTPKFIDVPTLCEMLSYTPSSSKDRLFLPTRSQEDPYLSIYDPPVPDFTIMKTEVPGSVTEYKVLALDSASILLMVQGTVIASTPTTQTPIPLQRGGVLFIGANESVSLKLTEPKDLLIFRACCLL
# [9] = target: Heat shock protein HSP 90-alpha (Homo sapiens, UniProt P07900); assay type: functional, organism-based
# INS1 = assay: beta cell apoptosis inhibitors, cytokine rescue, dose response, luminescence, retest (AID 449756); assay type: functional, cell-based; conditions: Rattus norvegicus, INS1;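 also: cell death triggered by IL-1 beta plus TNF-alpha plus IFN-gamma mixture; protective hits raise ATP signal compared with cytokine alone wells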
# [10] = Fluorescence-based cell-based high throughput dose response assay for inhibitors of the interaction of nucleotide-binding oligomerization domain containing 2 (NOD2) and the receptor-interacting serine-threonine kinase 2 (RIPK2).; assay type: functional; conditions: Homo sapiens
# Beta Lactamase = Beta Lactamase (Pseudomonas aeruginosa, UniProt Q932Y6); assay: beta-lactamase reporter inhibitor potency, dose response, artefact control for NOD2-RIPK2 interaction inhibitor project, BLA reporter cells, FRET fluorescence (AID 651552); assay type: functional, cell-based
# [11] = growth suppression of PTEN-null colon cells, dose response, cell-based, HCT116 PTEN knockout (AID 1047); assay type: functional;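 also: HCT116 colon tumor cells with PTEN knocked out; cells exposed to compound for 60 hours before readout; potency for loss of cell viability measured by luminescence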
# [12] = growth suppression of beta-catenin-knockout colon cells, dose response, cell-based, HCT116, human colon tumor (AID 1045); assay type: functional;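 also: HCT116 colon tumor cells with beta catenin knocked out; cells exposed to compound for 60 hours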
# [13] = Counterscreen for inhibitors of Trypanosoma brucei methionyl tRNA synthetase (MetRS): Luminescence-based cell-based high throughput dose response assay to identify compounds that are cytotoxic to Jurkat human T lymphocyte cells.; assay type: functional
# [14] = Late stage counterscreen for inhibitors of Trypanosoma brucei methionyl tRNA synthetase (MetRS): Luminescence-based cell-based high throughput dose response assay to identify compounds that are cytotoxic to Jurkat human T lymphocyte cells.; assay type: functional
# [15] = target: T2, Methionyl-tRNA synthetase, putative (Trypanosoma brucei brucei, UniProt Q38C91); assay type: functional, Trypanosoma brucei brucei strain 927/4 GUTat10.1
# T2 sequence (Q38C91 whole entry): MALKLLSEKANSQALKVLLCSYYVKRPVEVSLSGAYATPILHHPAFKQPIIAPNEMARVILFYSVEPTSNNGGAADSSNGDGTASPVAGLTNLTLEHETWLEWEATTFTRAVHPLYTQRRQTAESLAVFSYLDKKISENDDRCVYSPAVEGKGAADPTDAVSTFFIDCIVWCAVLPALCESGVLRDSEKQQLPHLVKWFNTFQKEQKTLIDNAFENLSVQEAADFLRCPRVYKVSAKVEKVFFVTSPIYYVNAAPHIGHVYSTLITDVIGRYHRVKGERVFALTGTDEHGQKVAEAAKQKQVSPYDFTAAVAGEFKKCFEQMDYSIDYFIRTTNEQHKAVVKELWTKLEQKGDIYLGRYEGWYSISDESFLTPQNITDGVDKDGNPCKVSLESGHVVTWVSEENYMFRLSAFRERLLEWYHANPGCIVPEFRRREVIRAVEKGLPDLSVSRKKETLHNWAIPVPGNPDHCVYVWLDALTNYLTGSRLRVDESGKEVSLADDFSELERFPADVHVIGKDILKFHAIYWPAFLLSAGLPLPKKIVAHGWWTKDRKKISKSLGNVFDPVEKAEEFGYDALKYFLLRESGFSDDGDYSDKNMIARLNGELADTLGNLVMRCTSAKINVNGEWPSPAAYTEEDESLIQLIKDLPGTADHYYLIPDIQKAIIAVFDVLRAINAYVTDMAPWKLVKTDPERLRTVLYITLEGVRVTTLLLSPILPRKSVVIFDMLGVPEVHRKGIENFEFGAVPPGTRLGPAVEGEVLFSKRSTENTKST
# [16] = target: T2, Methionyl-tRNA synthetase, putative; assay type: functional, Trypanosoma brucei brucei strain 927/4 GUTat10.1; remark: listed apart in the source
# Prothrombin = Prothrombin (Bos taurus, UniProt P00735); assay: thrombin inhibition, dose response, biochemical, fluorescence polarization, uHTS hits (AID 602369); assay type: functional
# [17] = target: 26S proteasome non-ATPase regulatory subunit 14 (Homo sapiens, UniProt O00487); assay: inhibition of proteasome subunit RPN11 – biochemical, fluorescence polarization, uHTS hits, confirmation (AID 602368); assay type: functional
# [18] = target: 72 kDa type IV collagenase (Homo sapiens, UniProt P08253); assay: Dose Response validation of uHTS RPN11 inhibitor hits using a MMP-2 Fluorescence assay.; assay type: functional
# HeLa = assay: HeLa cell cytotoxicity, dose response, cytotoxicity control for MITF activator project, CellTiter-Glo luminescence, cherry-pick samples (AID 540259); assay type: functional, cell-based; conditions: Homo sapiens
# Cytochrome P450 3A4 = Cytochrome P450 3A4 (Homo sapiens, UniProt P08684); conditions: Potency;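 also: confirmatory qHTS run detecting inhibitors and substrates of CYP3A4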
# [19] = target: Aryl hydrocarbon receptor (Homo sapiens, UniProt P35869); conditions: Potency;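 also: confirmatory quantitative high-throughput screen measuring activation of the AhR signaling pathway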
# [20] = target: T3, Rac GTPase-activating protein 1 (Homo sapiens, UniProt Q9H0H5); assay: MgcRacGAP GTPase-activating activity inhibitors, confirmation, biochemical, ADP Hunter fluorescence, primary and confirmatory (AID 624330); assay type: functional
# T3 sequence (Q9H0H5 whole entry): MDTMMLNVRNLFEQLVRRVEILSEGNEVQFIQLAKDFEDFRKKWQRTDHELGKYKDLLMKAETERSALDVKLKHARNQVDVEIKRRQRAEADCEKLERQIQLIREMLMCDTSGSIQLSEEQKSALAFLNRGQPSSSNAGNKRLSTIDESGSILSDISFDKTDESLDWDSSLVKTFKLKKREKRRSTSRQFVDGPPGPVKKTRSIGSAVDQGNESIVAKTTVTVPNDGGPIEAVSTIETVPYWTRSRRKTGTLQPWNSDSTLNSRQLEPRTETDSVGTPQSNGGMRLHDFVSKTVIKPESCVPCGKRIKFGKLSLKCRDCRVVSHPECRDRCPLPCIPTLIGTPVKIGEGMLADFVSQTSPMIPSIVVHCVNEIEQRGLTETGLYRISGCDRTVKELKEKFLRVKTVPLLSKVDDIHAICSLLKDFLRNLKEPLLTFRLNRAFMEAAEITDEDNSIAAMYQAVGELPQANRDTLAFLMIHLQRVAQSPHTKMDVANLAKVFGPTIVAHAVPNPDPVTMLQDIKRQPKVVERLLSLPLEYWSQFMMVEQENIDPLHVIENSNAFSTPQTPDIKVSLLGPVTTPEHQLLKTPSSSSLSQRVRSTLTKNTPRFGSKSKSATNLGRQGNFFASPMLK
# Nonstructural protein 1 = Nonstructural protein 1 (Influenza A virus, UniProt Q194T2); assay type: functional, Influenza A virus (A/California/07/2009(H1N1))
# [21] = target: DNA repair and recombination protein RAD54-like (Homo sapiens, UniProt Q92698); assay: inhibitors of human RAD54 branch migration, confirmation, biochemical, fluorescence, cherry-picked samples, dose series (AID 651657); assay type: functional
# [22] = target: T4, Histone-lysine N-methyltransferase NSD2 (Homo sapiens, UniProt O96028); assay type: biochemical
# T4 sequence (O96028 whole entry): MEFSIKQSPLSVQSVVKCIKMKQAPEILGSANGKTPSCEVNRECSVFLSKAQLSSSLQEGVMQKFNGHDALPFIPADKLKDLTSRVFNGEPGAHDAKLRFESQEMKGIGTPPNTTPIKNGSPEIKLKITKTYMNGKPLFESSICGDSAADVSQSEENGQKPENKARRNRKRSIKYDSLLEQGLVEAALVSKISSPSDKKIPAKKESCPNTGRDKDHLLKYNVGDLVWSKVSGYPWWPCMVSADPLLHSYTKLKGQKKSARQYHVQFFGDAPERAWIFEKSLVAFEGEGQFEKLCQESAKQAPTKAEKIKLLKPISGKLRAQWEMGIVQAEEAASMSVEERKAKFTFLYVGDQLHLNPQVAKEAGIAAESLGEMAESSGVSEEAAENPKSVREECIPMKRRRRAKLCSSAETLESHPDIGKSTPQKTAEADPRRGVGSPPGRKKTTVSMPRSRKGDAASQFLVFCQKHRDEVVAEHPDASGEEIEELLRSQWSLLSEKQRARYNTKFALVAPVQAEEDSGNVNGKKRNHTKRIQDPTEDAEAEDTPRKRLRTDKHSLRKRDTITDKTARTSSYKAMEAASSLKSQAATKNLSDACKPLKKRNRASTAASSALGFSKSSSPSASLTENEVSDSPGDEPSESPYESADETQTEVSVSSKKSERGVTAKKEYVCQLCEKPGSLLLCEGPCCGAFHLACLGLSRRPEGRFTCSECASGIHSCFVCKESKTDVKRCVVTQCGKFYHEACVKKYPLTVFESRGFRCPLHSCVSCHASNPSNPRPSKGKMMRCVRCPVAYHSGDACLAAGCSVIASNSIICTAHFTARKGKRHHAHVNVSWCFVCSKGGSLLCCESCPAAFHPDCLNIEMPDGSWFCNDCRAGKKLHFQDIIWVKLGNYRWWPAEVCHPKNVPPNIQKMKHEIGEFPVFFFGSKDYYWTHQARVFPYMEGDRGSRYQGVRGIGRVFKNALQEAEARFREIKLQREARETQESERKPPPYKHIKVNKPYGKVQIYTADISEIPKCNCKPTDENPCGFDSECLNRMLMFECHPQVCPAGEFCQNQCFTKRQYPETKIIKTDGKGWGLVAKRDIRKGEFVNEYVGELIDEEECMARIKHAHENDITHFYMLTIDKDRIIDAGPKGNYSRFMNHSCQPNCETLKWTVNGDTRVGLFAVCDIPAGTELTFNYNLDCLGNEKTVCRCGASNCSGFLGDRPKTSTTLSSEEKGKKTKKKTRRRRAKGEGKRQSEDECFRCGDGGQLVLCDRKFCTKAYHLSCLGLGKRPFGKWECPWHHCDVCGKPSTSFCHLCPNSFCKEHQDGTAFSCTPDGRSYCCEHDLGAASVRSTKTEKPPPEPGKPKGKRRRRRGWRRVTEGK
# 26S proteasome non-ATPase regulatory subunit 14, sequence (O00487 whole entry): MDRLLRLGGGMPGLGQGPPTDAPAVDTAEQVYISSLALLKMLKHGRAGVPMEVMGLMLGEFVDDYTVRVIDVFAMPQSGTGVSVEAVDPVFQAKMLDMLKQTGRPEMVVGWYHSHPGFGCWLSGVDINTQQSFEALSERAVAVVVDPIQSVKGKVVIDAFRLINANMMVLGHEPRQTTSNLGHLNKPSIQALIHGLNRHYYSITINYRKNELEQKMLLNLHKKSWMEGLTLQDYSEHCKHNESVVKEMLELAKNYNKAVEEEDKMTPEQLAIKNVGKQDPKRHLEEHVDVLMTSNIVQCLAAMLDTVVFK
# 72 kDa type IV collagenase, sequence (P08253 whole entry): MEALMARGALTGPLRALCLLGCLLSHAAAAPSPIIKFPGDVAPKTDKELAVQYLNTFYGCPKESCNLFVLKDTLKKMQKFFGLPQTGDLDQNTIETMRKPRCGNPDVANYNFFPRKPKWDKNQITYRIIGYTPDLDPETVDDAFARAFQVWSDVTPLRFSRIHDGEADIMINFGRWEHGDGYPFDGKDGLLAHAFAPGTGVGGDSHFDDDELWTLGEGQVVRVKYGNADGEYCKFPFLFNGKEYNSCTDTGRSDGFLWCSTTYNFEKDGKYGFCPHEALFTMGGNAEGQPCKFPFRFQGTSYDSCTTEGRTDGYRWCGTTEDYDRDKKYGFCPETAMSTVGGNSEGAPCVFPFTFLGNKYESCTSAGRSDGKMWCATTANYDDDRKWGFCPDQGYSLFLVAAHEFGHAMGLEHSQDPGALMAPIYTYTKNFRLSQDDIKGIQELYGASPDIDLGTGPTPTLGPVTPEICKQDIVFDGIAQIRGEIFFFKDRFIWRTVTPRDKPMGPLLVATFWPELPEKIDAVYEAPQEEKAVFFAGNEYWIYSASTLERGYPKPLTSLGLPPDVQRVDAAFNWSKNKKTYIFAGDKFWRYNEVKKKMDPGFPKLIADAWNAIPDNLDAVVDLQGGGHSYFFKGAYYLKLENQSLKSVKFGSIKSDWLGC
# Melanocortin receptor 4, sequence (P32245 whole entry): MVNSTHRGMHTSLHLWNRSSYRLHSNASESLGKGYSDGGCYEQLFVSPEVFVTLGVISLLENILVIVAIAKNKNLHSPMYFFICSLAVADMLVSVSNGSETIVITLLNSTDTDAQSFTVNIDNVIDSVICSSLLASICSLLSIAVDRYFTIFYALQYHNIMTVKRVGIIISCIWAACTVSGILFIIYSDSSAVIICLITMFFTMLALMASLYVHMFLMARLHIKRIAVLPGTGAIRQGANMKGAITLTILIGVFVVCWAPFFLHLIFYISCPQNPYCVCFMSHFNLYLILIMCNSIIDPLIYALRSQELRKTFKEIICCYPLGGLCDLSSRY
# Apoptotic protease-activating factor 1, sequence (O14727 whole entry): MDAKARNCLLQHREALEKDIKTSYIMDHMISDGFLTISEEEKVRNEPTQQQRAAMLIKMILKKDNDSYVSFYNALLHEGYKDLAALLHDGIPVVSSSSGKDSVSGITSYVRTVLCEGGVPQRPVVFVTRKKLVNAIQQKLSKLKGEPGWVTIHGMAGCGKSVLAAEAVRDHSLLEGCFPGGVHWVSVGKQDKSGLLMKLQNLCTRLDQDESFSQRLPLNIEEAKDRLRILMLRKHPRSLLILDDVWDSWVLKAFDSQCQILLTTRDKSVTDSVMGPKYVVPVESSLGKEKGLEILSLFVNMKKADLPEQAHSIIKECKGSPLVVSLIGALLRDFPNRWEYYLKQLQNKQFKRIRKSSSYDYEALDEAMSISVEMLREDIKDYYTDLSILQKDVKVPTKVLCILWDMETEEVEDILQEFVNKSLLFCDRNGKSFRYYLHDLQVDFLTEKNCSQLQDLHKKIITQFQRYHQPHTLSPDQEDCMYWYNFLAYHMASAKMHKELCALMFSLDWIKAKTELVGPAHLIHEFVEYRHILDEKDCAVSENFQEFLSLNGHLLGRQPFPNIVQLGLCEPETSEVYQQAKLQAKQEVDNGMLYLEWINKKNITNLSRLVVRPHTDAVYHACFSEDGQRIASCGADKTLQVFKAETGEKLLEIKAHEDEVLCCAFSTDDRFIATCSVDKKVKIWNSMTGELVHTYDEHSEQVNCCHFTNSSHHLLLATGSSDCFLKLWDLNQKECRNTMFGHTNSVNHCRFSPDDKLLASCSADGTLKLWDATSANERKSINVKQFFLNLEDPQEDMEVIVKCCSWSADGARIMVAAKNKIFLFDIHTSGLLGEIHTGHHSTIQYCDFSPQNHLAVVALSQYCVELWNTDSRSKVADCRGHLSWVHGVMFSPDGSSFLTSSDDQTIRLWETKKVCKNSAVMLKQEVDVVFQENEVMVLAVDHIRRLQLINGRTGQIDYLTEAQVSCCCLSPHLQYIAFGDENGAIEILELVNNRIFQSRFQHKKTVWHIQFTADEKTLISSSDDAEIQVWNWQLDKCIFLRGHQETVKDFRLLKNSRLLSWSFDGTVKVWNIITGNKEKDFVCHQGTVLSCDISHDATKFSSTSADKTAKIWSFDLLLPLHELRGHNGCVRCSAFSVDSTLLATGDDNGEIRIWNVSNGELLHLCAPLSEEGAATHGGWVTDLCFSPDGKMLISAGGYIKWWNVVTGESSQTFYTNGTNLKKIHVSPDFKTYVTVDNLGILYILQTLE
# DNA repair and recombination protein RAD54-like, sequence (Q92698 whole entry): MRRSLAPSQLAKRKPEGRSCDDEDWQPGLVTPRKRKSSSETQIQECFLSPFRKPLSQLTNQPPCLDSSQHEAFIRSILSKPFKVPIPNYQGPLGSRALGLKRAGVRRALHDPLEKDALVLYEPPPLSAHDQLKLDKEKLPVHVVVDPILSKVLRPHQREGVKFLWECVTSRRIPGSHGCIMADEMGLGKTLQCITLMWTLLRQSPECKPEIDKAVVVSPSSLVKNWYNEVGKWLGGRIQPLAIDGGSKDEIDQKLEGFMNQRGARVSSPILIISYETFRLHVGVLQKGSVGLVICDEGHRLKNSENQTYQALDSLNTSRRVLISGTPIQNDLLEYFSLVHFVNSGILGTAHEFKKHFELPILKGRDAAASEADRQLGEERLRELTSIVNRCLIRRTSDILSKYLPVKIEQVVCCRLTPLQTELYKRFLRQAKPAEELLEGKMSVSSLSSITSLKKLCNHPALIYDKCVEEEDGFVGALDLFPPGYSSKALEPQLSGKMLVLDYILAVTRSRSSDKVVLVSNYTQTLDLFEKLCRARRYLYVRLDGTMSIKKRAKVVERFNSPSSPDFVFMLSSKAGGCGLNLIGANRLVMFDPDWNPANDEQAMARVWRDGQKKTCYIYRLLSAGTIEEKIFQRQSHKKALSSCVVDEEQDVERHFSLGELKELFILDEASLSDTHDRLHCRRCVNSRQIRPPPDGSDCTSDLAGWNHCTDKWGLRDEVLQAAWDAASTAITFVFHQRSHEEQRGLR
# Aryl hydrocarbon receptor, sequence (P35869 whole entry): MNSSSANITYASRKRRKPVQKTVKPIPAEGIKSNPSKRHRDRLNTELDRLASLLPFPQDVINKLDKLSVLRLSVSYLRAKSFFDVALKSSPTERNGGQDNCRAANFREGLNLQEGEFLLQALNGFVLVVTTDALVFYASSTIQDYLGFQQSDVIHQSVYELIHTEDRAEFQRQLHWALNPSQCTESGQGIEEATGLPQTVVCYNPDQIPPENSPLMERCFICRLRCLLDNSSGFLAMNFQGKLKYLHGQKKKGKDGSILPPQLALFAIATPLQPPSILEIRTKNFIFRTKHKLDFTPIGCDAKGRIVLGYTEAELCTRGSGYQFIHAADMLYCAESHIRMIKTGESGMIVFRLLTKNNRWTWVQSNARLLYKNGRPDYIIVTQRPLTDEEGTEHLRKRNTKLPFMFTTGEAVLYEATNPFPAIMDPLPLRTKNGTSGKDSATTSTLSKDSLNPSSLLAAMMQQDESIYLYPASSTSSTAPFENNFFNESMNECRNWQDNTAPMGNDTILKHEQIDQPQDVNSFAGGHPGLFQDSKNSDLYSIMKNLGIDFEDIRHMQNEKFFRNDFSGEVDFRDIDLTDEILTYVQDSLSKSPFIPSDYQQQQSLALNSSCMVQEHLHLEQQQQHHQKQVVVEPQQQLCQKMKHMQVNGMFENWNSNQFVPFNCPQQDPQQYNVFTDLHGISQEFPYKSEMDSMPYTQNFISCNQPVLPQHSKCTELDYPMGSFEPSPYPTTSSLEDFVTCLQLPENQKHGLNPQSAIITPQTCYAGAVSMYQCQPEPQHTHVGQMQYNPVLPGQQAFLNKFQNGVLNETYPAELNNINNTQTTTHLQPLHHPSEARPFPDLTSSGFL
# Long-chain-fatty-acid--AMP ligase FadD28, sequence (P9WQ59 whole entry): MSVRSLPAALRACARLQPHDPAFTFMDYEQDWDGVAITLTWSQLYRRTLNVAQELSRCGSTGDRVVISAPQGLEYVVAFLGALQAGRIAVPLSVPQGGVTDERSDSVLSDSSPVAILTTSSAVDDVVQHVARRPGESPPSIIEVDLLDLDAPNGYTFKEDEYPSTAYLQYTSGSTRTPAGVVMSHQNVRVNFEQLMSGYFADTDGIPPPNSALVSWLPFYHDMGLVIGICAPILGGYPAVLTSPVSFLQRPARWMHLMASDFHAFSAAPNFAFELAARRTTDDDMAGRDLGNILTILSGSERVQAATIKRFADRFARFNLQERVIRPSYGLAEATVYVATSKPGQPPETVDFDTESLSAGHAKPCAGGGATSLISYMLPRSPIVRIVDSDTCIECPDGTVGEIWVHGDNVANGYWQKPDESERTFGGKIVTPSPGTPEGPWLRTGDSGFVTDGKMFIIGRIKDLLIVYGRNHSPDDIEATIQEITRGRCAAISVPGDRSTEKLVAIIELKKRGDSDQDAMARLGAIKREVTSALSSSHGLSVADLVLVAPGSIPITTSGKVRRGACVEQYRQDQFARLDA
# Nonstructural protein 1, sequence (Q194T2 whole entry): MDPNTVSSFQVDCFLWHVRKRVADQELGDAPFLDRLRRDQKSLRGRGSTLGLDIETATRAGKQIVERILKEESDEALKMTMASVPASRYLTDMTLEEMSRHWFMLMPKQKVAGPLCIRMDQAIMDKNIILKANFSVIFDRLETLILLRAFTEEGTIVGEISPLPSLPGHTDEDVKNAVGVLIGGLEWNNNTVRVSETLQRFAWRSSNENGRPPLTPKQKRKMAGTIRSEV
compound,measurement,setting,value
Oc1nc2ccccc2n1C1CCN(C(c2nnnn2C2CCCCC2)C2CC2)CC1 (stereo not given),IC50,[1],3.14 µM (active)
COc1ccc(C(=O)Nc2ccc3c(c2)C(=O)c2ccccc2C3=O)cc1OC,IC50,[2],> 100 µM (inactive)
CCOC(=O)c1c(NC(=O)COc2cccc3c2CCN(C)C3=O)sc2c1CCC2,AC50,[3],5.44 µM (active)
same,IC50,Protein Wnt-3a,6.12 µM (active)
same,IC50,Melanocortin receptor 4,> 64.6 µM (inactive)
same,AC50,[4],22.8 µM (active)
same,IC50,[5],> 64.6 µM (inactive)
same,AC50,[6],41.7 µM (active)
CCc1cccc2c(C(=O)COC(=O)c3cnc(C)cn3)c[nH]c12,AC50,[7],20 µM (active)
CC1=C(C)/C(=N\OS(=O)(=O)c2ccc(C)cc2)C=CC1=O,IC50,[8],5.11 µM (active)
same,AC50,[9],1.61 µM (active)
same,AC50,INS1,2.15 µM (active)
same,IC50,[10],3.42 µM (active)
same,IC50,Beta Lactamase,31 µM (inactive)
same,EC50,[11],35.2 µM (active)
same,EC50,[12],37.6 µM (active)
C[C@H](O)[C@@H]1C(=O)N2CCc3c([nH]c4ccccc34)[C@@H]2C[C@@H]1N(C)Cc1ccc2c(c1)OCO2,IC50,[13],83.3 µM (inactive)
same,IC50,[14],> 83.3 µM (inactive)
same,IC50,[15],1.34 µM (active)
same,IC50,[16],0.672 µM (active)
O=C(Cn1cc(C(=O)COc2ccccc2)c2ccccc21)NCc1ccco1,IC50,Prothrombin,41.3 µM (active)
same,IC50,[17],47.6 µM (active)
same,IC50,[18],> 100 µM (inactive)
Nc1ccc2cc3ccccc3cc2c1 [2-AMINOANTHRACENE],AC50,HeLa,122 µM (active)
same,AC50,Cytochrome P450 3A4,15.8 µM (inconclusive)
same,AC50,[19],25.1 µM (inconclusive)
CC1(C)OC(=O)C(=Cc2ccc(-c3ccc(S(N)(=O)=O)cc3)o2)C(=O)O1,IC50,Melanocortin receptor 4,> 64.6 µM (inactive)
same,IC50,[20],41.8 µM (active)
same,IC50,[5],> 64.6 µM (inactive)
O=[N+]([O-])c1ccc(O)c(/C=N/NC2=NS(=O)(=O)c3ccccc32)c1,IC50,Prothrombin,36.8 µM (active)
same,IC50,[17],34.9 µM (active)
same,IC50,[18],5.41 µM (active)
same,IC50,Nonstructural protein 1,2.35 µM (active)
CCNC1CCC(Nc2ccnc3cc(Cl)ccc23)CC1 (stereo not given),AC50,[21],25.9 µM (active)
same,AC50,[22],7.52 µM (active)
